Reference: patent US20230357189A1, “MODIFIED FLUOROQUINOLONES AND USES THEREOF” (Technion Research & Development Foundation Limited, priority 2021, published 2023)
Values after ≈ are worked out from the molar mass of the structure shown.

Tests used:
[1] = tested on: supercoiled (+) pHOT-1 plasmid DNA; assay: DNA cleavage assay (gel electrophoresis); assay type: biochemical; conditions: for DNase activity (cleavage of supercoiled plasmid, form I to form II): absence of adjuvants, HEPES buffer (50 mM, pH 7.4), 5 hours; for concentration giving almost complete smearing of the DNA (multiply nicked DNA): ascorbic acid (0.32 mM), HEPES pH 7.4, 2 hours
Description: Removal of Ligands Prior to Electrophoresis was performed when more than 100 μM of Cu(II)-ligand or Co(III) ligand (at any concentration) complexes were employed that is, for DNA cleavage assays that were performed in the absence of any adjuvants. An Amberlyst® 15 (Sigma Aldrich) ion-exchange resin was prepared according to the reported literature [Hettich et al. J. Am. Chem. Soc. 1997, 119 (24), 5638-5647] and stored at −20° C. Before use, 0.5 gram of the exchanger was mixed with 250 μL of water. After stopping the DNA-cleavage reaction by addition of EDTA (54 mM, 15 minutes incubation at 37° C.), 10 μL of the exchanger suspension was added, vortexed, and incubated at 37° C. for 15 minutes before centrifugation and electrophoresis.
DNA cleavage activity of the tested Complexes towards supercoiled (+) pHOT-1 plasmid DNA (TopoGEN) was monitored by gel electrophoresis. In a typical experiment, plasmid DNA (200 ng, […]) in HEPES buffer (50 mM, pH 7.4) was mixed with different concentrations of a tested metal complex in the presence or absence of ascorbic acid (0.32 mM). All stock solutions of buffers and of the metal complexes were prepared using HPLC grade water (ChromAR®). Molecular biology reagent grade water (Sigma) was added up to a total reaction volume of 30 μL before incubation for a given time. For the ascorbic acid assays, the reaction was quenched immediately after incubation with EDTA (54 mM). For analysis, 10 μL of loading buffer (40% sucrose, 100 mM Tris-HCl (pH 7.5), 1 mM EDTA, 0.5 mg·mL^−1 bromophenol blue) was added to the incubated solution and loaded onto an agarose (SeaKem LE) gel [1% in TAE×1 buffer (40 mM Tris, 20 mM acetic acid, 1 mM EDTA)]. Electrophoresis was carried out at 60 V for 2 hours. Gels were stained with 1 μg·mL^−1 ethidium bromide for 30 minutes and de-stained in TAE×1 buffer. DNA bands were visualized with medium-range ultraviolet light using Bio-Rad Gel Doc XR+ imaging system. The quantity of different DNA forms (I or II) was estimated using ImageJ software.
Chem. 2015, 2015 (28), 4722-4730; Kashiba-Iwatsuki et al. FEBS Lett. 1996, 389 (2), 149-15].
The copper complex of compound 2 (2-Cu(II)) was used as the positive control in these assays.

[2] = biological target: T1, E. coli DNA gyrase (Escherichia coli, UniProt P0AES4+P0AES6); assay: E. coli Gyrase-DNA supercoiling assay; assay type: biochemical; conditions: supercoiling of relaxed pHOT-1 plasmid in presence of ATP; 37° C., 60 minutes
T1 construct: purchased TopoGEN
T1 sequence (P0AES4 whole entry, one chain of several): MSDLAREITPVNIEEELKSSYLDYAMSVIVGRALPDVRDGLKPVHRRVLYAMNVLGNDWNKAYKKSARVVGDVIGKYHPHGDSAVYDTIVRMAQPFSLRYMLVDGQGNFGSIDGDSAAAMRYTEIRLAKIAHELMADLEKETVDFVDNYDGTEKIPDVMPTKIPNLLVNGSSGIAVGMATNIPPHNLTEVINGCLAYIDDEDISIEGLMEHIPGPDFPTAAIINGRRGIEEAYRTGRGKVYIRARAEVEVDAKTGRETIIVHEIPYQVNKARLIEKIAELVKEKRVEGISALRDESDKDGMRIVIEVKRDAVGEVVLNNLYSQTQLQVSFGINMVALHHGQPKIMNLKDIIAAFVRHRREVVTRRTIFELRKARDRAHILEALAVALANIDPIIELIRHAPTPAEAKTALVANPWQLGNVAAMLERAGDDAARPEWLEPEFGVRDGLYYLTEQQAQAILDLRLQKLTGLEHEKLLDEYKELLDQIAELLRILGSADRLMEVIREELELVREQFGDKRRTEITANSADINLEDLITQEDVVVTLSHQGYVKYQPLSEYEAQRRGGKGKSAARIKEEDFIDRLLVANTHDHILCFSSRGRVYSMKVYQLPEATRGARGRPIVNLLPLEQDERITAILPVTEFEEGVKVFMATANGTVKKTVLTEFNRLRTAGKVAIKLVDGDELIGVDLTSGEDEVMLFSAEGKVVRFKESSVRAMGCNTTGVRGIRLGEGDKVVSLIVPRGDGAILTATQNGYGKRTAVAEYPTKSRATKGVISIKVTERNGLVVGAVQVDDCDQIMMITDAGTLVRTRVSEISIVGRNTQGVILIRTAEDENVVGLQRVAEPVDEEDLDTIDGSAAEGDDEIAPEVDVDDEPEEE
Description: The DNA supercoiling reactions were based on the manufacturer protocol (TopoGEN). The amount of DNA gyrase used in each assay was optimized by testing various dilutions of the stock. The amount sufficient to supercoil 250 nanograms (ng) of the substrate in 1 hour at 37° C. was then used for testing the compounds (1.1 U as defined by manufacturer). Assays (30 μL) contained 250 nanograms of relaxed pHOT1 plasmid DNA in Tris-HCl buffer (35 mM), pH 7.5, containing KCl (24 mM), MgCl2 (4 mM), DTT (2 mM), Spermidine (1.8 mM), ATP (1 mM), 6.5% (w/v) glycerol and bovine serum albumin (0.1 mg/ml). Reactions were incubated at 37° C. for 60 minutes. Reaction mixtures were stopped by the addition of 30 μL of loading buffer (40% sucrose, 100 mM Tris·HCl (pH 7.5), 1 mM EDTA, 0.5 mg×mL^−1 bromophenol blue) and worked up using 30 μL of 24:1 chloroform/isoamyl alcohol mixture; the aqueous layer was then analyzed using electrophoresis.
Electrophoresis, gel staining, DNA visualization and DNA quantification were performed as described for the DNA cleavage assays.

[3] = tested on: Bacillus Subtilis; assay: Antibacterial activity, MIC by double-microdilution method; assay type: cell-based; conditions: for Gram-positive MIC d / MIC: Table 2; for MIC: read-out: Gram-positive MIC d
[4] = biological target: T1, E. coli DNA gyrase; assay: E. coli Gyrase-DNA cleavage assay; assay type: biochemical; conditions: for linearization of supercoiled DNA with DNA gyrase, after Proteinase K / generation of linear DNA with DNA gyrase, without Proteinase K: absence of ATP; for linearization of supercoiled DNA with DNA gyrase, after Proteinase K: second incubation with SDS and Proteinase K; for generation of linear DNA with DNA gyrase, without Proteinase K / concentration of maximum linear DNA (bell-shaped profile): without Proteinase K treatment; for generation of linear DNA with DNA gyrase, without Proteinase K: buffer with DTT
Description: E. coli gyrase enzyme was purchased from TopoGEN and the DNA cleavage reactions were based on the protocol of Inspiralis. Assays (30 μL) contained supercoiled (+) pHOT1 plasmid (200 nanograms) and DNA gyrase (5 U as defined by manufacturer) in 35 mM Tris-HCl (pH 7.5), 24 mM KCl, 4 mM MgCl2, 2 mM DTT, 1.8 mM Spermidine, 6.5% (w/v) glycerol and 0.1 mg/mL bovine serum albumin. Reactions were incubated at 37° C. for 60 minutes. Enzyme-DNA cleavage complexes were trapped by adding 3 μL of 2% SDS. Following this, 1.5 μL of 10 mg/mL Proteinase K (Sigma-Aldrich) was added (where relevant) and the reaction mixtures were incubated at 37° C. for 30 minutes to digest the enzyme gyrase. Samples were mixed with 30 μL of loading buffer (40% sucrose, 100 mM Tris-HCl (pH 7.5), 1 mM EDTA, 0.5 mg-ml-1 bromophenol blue) and worked up using 30 μL of 24:1 chloroform/isoamyl alcohol mixture; the aqueous layer was then analyzed using electrophoresis. Electrophoresis, gel staining, DNA visualization and DNA quantification were performed as described for the DNA cleavage assays. DNA double stranded cleavage was monitored by the conversion of supercoiled plasmid to linear DNA and quantified in comparison to a control drug-free reaction.
To investigate the mechanism of inhibition, a DNA gyrase-induced DNA cleavage assay was performed in the absence of ATP. In this assay, the production of linear DNA from supercoiled DNA is measured as a function of compound concentration. […] Consequently, for the purposes of this assay, it is necessary to perform a second incubation of the reaction mixture with SDS and Proteinase K, which enables the digestion of the DNA gyrase enzyme and thereby ‘frees’ the linear DNA (Form III) so that it moves during electrophoresis.

[5] = tested on: Escherichia coli R477-100; assay: Antibacterial activity, MIC by double-microdilution method; assay type: cell-based; conditions: for Gram-negative MIC a / MIC: Table 2, without DTT; for MIC: R477100, read-out: Gram-negative MIC a
[6] = tested on: Escherichia coli 25922; assay: as above; assay type: cell-based; conditions: for Gram-negative MIC b / MIC: Table 2, Escherichia coli 25922; for MIC: read-out: Gram-negative MIC b
[7] = tested on: Staphylococcus Epidermidis; assay: as above; assay type: cell-based; conditions: for Gram-positive MIC c: Table 2; for MIC: Table 2, read-out: Gram-positive MIC c
[8] = tested on: Gram-negative and Gram-positive bacteria; assay: Comparative antibacterial activity, all tested bacteria; assay type: cell-based; conditions: for antibacterial activity (in words): MIC, Table 2 and 3
Description: Comparative antibacterial activities were determined by measuring the MIC values by using the double-microdilution method according to the National Committee for Clinical Laboratory Standards (NCCLS). The Luria-Bertani growth medium and polypropylene 96-well plates (Thermo) were used unless otherwise stated. All the experiments were performed in triplicate, and analogous results were obtained in three different experiments.
Compounds 1-6 and their Cu(II) and Co(III) complexes, as well as the pendant-bearing compounds 19-23 and 26 were tested for their comparative antibacterial activity by determining MIC values against two Gram-negative E. coli strains (AR477-100 and 25922) and two Gram-positive strains, Staphylococcus Epidermidis, and Bacillus Subtilis.

SMILES | DNase activity (cleavage of supercoiled plasmid, form I to form II) [1] | IC50 [2] | Gram-positive MIC d ([3]; Bacillus Subtilis) | linearization of supercoiled DNA with DNA gyrase, after Proteinase K [4] | generation of linear DNA with DNA gyrase, without Proteinase K [4] | Gram-negative MIC a ([5]; Escherichia coli R477-100) | Gram-negative MIC b [6] | Gram-positive MIC c [7] | antibacterial activity (in words) [8] | MIC ([3]; Bacillus Subtilis) | MIC ([5]; Escherichia coli R477-100) | MIC [6] | MIC [7] | other results
O.O=C(O)c1cn(C2CC2)c2cc(N3CCN(CCCCCCN4CCNCCNCCNCC4)CC3)c(F)cc2c1=O.[Cu+2] [1-Cu(II)] | very significant enhancement in the rates of DNA cleavage | 100 ± 10 nM | 48 µg/mL | linearized the DNA in a similar manner to the metal-free ligands | not able to generate linear DNA at any concentration | 24 µg/mL | 48 µg/mL | 24 µg/mL | – | – | – | – | – | concentration giving almost complete smearing of the DNA (multiply nicked DNA) [1]: > 40 µM; improvement of MIC in the presence of DTT ([5]; 10 mM DTT vs without DTT, Gram-negative E. coli R477-100): no change whatsoever
O.O=C(O)c1cn(C2CC2)c2cc(N3CCN(CCCCCCCN4CCNCCNCCNCC4)CC3)c(F)cc2c1=O.[Cu+2] [2-Cu(II)] | significant cleavage enhancement even in relation to the activity of 1-Cu(II) and 4-Cu(II) | 240 ± 30 nM | 12 µg/mL | linearized the DNA in a similar manner to the metal-free ligands | able to generate a significant quantity of linear DNA | 12 µg/mL | 6 µg/mL | 12 µg/mL | – | – | – | – | – | concentration giving almost complete smearing of the DNA (multiply nicked DNA) [1]: 20 µM; concentration of maximum linear DNA (bell-shaped profile) [4]: 25 µM
O.O=C(O)c1cn(C2CC2)c2cc(N3CCN(Cc4ccc(CN5CCNCCNCCNCC5)cc4)CC3)c(F)cc2c1=O.[Cu+2] [4-Cu(II)] | very significant enhancement in the rates of DNA cleavage | 140 ± 20 nM | 6 µg/mL | linearized the DNA in a similar manner to the metal-free ligands | able to generate a significant quantity of linear DNA | 24 µg/mL | 12 µg/mL | 3 µg/mL | – | – | – | – | – | improvement of MIC in the presence of DTT ([3]; 10 mM DTT vs without DTT, Gram-positive B. Subtilis): 4 fold; concentration of maximum linear DNA (bell-shaped profile) [4]: 25 µM; Gram-negative MIC, DTT 10 mM ([5]; Escherichia coli R477-100): 3.0 µg/mL; improvement of MIC in the presence of DTT ([6]; 10 mM DTT vs without DTT, E. coli 25922): 4 fold
O.O=C(O)c1cn(C2CC2)c2cc(N3CCN(Cc4ccc(CCN5CCNCCNCCNCC5)cc4)CC3)c(F)cc2c1=O.[Co+3].[OH-] [5-Co(III)] | – | – | 3 µg/mL | – | – | 3 µg/mL | 1.5 µg/mL | 3 µg/mL | slightly higher activity | – | – | – | – | –
O.O=C(O)c1cn(C2CC2)c2cc(N3CCN(Cc4ccc(CCCN5CCNCCNCCNCC5)cc4)CC3)c(F)cc2c1=O.[Co+3].[OH-] [6-Co(III)] | – | – | 3 µg/mL | – | – | 6 µg/mL | 3 µg/mL | 3 µg/mL | slightly higher activity | – | – | – | – | –
O=C(O)c1cn(C2CC2)c2cc(N3CCN(CCCCCCN4CCNCCNCCNCC4)CC3)c(F)cc2c1=O [Compound 1] | – | 130 ± 30 nM | – | significant linearization of DNA | – | – | – | – | – | 12 µg/mL (≈ 20.5 µM) | 12 µg/mL (≈ 20.5 µM) | 24 µg/mL (≈ 41 µM) | 12 µg/mL (≈ 20.5 µM) | –
O=C(O)c1cn(C2CC2)c2cc(N3CCN(CCCCCCCN4CCNCCNCCNCC4)CC3)c(F)cc2c1=O [Compound 2] | – | 240 ± 30 nM | – | significant linearization of DNA | – | – | – | – | – | 12 µg/mL (≈ 20 µM) | 12 µg/mL (≈ 20 µM) | 6 µg/mL (≈ 10 µM) | 12 µg/mL (≈ 20 µM) | –
O=C(O)c1cn(C2CC2)c2cc(N3CCN(Cc4ccc(CN5CCNCCNCCNCC5)cc4)CC3)c(F)cc2c1=O [Compound 4] | – | 150 ± 10 nM | – | significant linearization of DNA | – | – | – | – | – | 6 to 12 µg/mL (≈ 9.9 to 19.8 µM) | 12 to 24 µg/mL (≈ 19.8 to 39.6 µM) | 12 to 24 µg/mL (≈ 19.8 to 39.6 µM) | 6 to 12 µg/mL (≈ 9.9 to 19.8 µM) | –
N=C(N)NCCN1CCNCCNCCN(CCCCc2ccc(CN3CCN(c4cc5c(cc4F)c(=O)c(C(=O)O)cn5C4CC4)CC3)cc2)CC1 [Compound 22] | significant DNase activity | – | 1.5 µg/mL | – | – | 3 µg/mL | 3 µg/mL | 6 µg/mL | slightly higher activity | – | – | – | – | Gram-positive MIC, DTT 0 mM ([3]; Table 3, Bacillus Subtilis, DTT 0 mM): 1.5 µg/mL; Gram-positive MIC, DTT 2 mM ([3]; Table 3, Bacillus Subtilis, DTT 2 mM): 1.5 µg/mL; Gram-positive MIC, DTT 10 mM ([3]; Table 3, Bacillus Subtilis, DTT 10 mM): 1.5 µg/mL; better antibacterial activity compared to all the other pendant-bearing metal-free ligands ([8]; Table 2 MIC): 4-8 fold; Gram-negative MIC, DTT 10 mM ([5]; Escherichia coli R477-100): 3 µg/mL; Gram-negative MIC, DTT 0 mM ([5]; Table 3, Escherichia coli R477-100, DTT 0 mM): 3 µg/mL; Gram-negative MIC, DTT 2 mM ([5]; Table 3, Escherichia coli R477-100, DTT 2 mM): 3 µg/mL
